{"source": "patent US8183365B2", "about": "“Synthetic method for ceratamine A and B and analogs thereof” (The Ohio State University, priority 2009, dated 2012)", "origin": "cited, not measured here", "details": "cell-based assay; natural products isolated from sponge Pseudoceratina sp.", "data": [{"compound": "CNc1nc2ccn(C)c(=O)c(Cc3cc(Br)c(OC)c(Br)c3)c-2n1", "note": "[ceratamine A, Ceratamine A]", "values": [{"measurement": "antimitotic activity", "value": "possess antimitotic activity"}]}, {"compound": "Ceratamine B", "values": [{"measurement": "antimitotic activity", "value": "possess antimitotic activity"}]}]}
